target: Human recombinant protein CD73 (Homo sapiens (Human), UniProt P21589); test: CD73 enzyme activity in vitro (Malachite Green, AMP substrate); format: biochemical; conditions: recombinant CD73, 100 μM AMP substrate solution, absorbance at 620 nm
Experimental: 1. Test Method for CD73 Enzyme Activity In Vitro
Human recombinant protein CD73 (Acro, Cat. No. CD3-H52H7) was prepared into a 0.04 ng/μL protein solution, and substrate AMP (Sigma, Cat. No. A1752-1G) was prepared into a 100 μM substrate solution. 5 μL of compounds at different concentrations were added into a 384-well white transparent bottom plate, 5 μL of 0.04 ng/μL recombinant CD73 enzyme solution was added, and the mixture was incubated at room temperature for 15 minutes. 10 μL of 100 μM substrate solution was added, the mixture was incubated at 37° C. for 40 minutes, 5 μL of Malachite Green Reagent A (R&D, Cat. No. DY996) was added, the mixture was incubated at room temperature for 10 minutes, and finally, 5 μL of Malachite Green Reagent B was added, the mixture was incubated at room temperature for 20 minutes, and a microplate reader PHERAstar FSX instrument was used to detect the absorbance at 620 nm. IC50 values were calculated using the origin9.2 software. The calculation formula of the inhibition rate was shown in Formula 1, wherein ODsample is the readout for the compound, ODnegative is the readout for the negative control without substrate, and ODpositive is the readout for the vehicle control.

Chain of Human recombinant protein CD73 (P21589 27-574): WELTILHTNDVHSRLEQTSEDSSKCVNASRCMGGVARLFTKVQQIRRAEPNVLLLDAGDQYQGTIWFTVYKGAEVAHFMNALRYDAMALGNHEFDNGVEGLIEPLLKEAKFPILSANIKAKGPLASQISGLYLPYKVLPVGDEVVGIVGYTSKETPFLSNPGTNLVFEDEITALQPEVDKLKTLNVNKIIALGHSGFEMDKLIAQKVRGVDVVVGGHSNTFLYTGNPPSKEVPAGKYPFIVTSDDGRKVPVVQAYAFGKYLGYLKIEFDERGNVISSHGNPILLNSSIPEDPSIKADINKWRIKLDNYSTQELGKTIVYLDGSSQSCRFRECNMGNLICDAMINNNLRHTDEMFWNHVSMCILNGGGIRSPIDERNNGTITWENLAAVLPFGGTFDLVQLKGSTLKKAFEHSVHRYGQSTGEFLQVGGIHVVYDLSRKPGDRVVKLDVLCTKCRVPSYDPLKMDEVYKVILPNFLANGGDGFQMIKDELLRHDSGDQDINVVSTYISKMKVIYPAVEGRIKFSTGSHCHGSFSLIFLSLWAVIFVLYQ

| SMILES | IC50 |
| --- | --- |
| O=P(O)(O)CP(=O)(O)OC[C@H]1O[C@H](n2ncc3c(N4C[C@H]5CCC[C@H]5C4)nc(Cl)nc32)[C@H](O)[C@@]1(O)CO [Compound 31, (((((2R,3S,4R,5S)-5-(6-chloro-4-((3aR,6aS)-hexahydrocyclopenta[c]pyrrol-2(1H)-yl)-1H-pyrazolo[3,4-d]pyrimidin-1-yl)-3,4-dihydroxy-3-(hydroxymethyl)tetrahydrofuran-2-yl)methoxy)(hydroxy)phosphoryl)methyl)phosphonic acid] | 0.7 nM |
| O=P(O)(O)CP(=O)(O)OC[C@H]1O[C@@H](n2ncc3c(NOCc4ccccc4)nc(Cl)nc32)[C@H](O)[C@@H]1O [Compound 30, (((((2R,3S,4R,5R)-5-(4-((benzyloxy)amino)-6-chloro-1H-pyrazolo[3,4-d]pyrimidin-1-yl)-3,4-dihydroxytetrahydrofuran-2-yl)methoxy)(hydroxy)phosphoryl)methyl)phosphonic acid] | 0.2 nM |
| O=P(O)(O)CP(=O)(O)OC[C@H]1O[C@@H](n2ncc3c(N4C[C@H]5CCC[C@H]5C4)nc(Cl)nc32)[C@H](O)[C@@]1(O)CO [Compound 28, (((((2R,3S,4R,5R)-5-(6-chloro-4-((3aR,6aS)-hexahydrocyclopenta[c]pyrrol-2(1H)-yl)-1H-pyrazolo[3,4-d]pyrimidin-1-yl)-3,4-dihydroxy-3-(hydroxymethyl)tetrahydrofuran-2-yl)methoxy)(hydroxy)phosphoryl)methyl)phosphonic acid] | 0.7 nM |
| C#C[C@@]1(O)[C@@H](COP(=O)(O)CP(=O)(O)O)O[C@@H](n2ncc3c(N4C[C@H]5CCC[C@H]5C4)nc(Cl)nc32)[C@@H]1O [Compound 40, (((((2R,3S,4R,5R)-5-(6-chloro-4-((3aR,6aS)-hexahydrocyclopenta[c]pyrrol-2(1H)-yl)-1H-pyrazolo[3,4-d]pyrimidin-1-yl)-3-ethynyl-3,4-dihydroxytetrahydrofuran-2-yl)methoxy)(hydroxy)phosphoryl)methyl)phosphonic acid] | 0.06 nM |
| O=P(O)(O)CP(=O)(O)OC[C@H]1O[C@@H](n2ncc3c(N4C[C@H]5CCC[C@H]5C4)cc(Cl)nc32)[C@H](O)[C@@]1(O)CO [Compound 29, (((((2R,3S,4R,5R)-5-(6-chloro-4-((3aR,6aS)-hexahydrocyclopenta[c]pyrrol-2(1H)-yl)-1H-pyrazolo[3,4-b]pyridin-1-yl)-3,4-dihydroxy-3-(hydroxymethyl)tetrahydrofuran-2-yl)methoxy)(hydroxy)phosphoryl)methyl) phosphonic acid] | 2.6 nM |
| O=P(O)(O)CP(=O)(O)OC[C@H]1O[C@@H](n2ncc3c(N4C[C@H]5CCC[C@H]5C4)nc(Cl)nc32)[C@H](O)[C@@]1(O)C(F)F [Compound 33, (((((2R,3S,4R,5R)-5-(6-chloro-4-((3aR,6aS)-hexahydrocyclopenta[c]pyrrol-2(1H)-yl)-1H-pyrazolo[3,4-d]pyrimidin-1-yl)-3-(difluoromethyl)-3,4-dihydroxytetrahydrofuran-2-yl)methoxy)(hydroxy)phosphoryl)methyl)phosphonic acid] | 1.2 nM |
| CC(C)ONc1nc(Cl)nc2c1cnn2[C@@H]1O[C@H](COP(=O)(O)CP(=O)(O)O)[C@@H](O)[C@H]1O [Compound 27, (((((2R,3S,4R,5R)-5-(6-chloro-4-(isopropoxyamino)-1H-pyrazolo[3,4-d]pyrimidin-1-yl)-3,4-dihydroxytetrahydrofuran-2-yl)methoxy)(hydroxy)phosphoryl)methyl)phosphonic acid] | 1.7 nM |
| C[C@H](Nc1cc(Cl)nc2c1cnn2[C@@H]1O[C@H](COP(=O)(O)CP(=O)(O)O)[C@](O)(CO)[C@H]1O)c1ccccc1F [Compound 12, (((((2R,3S,4R,5R)-5-(6-chloro-4-(((S)-1-(2-fluorophenyl)ethyl)amino)-1H-pyrazolo[3,4-b]pyridin-1-yl)-3,4-dihydroxy-3-(hydroxymethyl)tetrahydrofuran-2-yl)methoxy)(hydroxy)phosphoryl)methyl)phosphonic acid] | 0.4 nM |
| CONc1nc(Cl)nc2c1cnn2[C@@H]1O[C@H](COP(=O)(O)CP(=O)(O)O)[C@@H](O)[C@H]1O [Compound 18, (((((2R,3S,4R,5R)-5-(6-chloro-4-(methoxyamino)-1H-pyrazolo[3,4-d]pyrimidin-1-yl)-3,4-dihydroxytetrahydrofuran-2-yl)methoxy)(hydroxy)phosphoryl)methyl)phosphonic acid] | 1.8 nM |
| O=P(O)(O)CP(=O)(O)OC[C@H]1O[C@@H](n2ncc3c(N4C[C@H]5CCC[C@H]5C4)cc(Cl)nc32)[C@H](O)[C@@]1(O)C(F)F [Compound 32, (((((2R,3S,4R,5R)-5-(6-chloro-4-((3aR,6aS)-hexahydrocyclopenta[c]pyrrol-2(1H)-yl)-1H-pyrazolo[3,4-b]pyridin-1-yl)-3-(difluoromethyl)-3,4-dihydroxytetrahydrofuran-2-yl)methoxy)(hydroxy)phosphoryl)methyl)phosphonic acid] | 0.9 nM |
| CC(C)ONc1cc(Cl)nc2c1cnn2[C@@H]1O[C@H](COP(=O)(O)CP(=O)(O)O)[C@@H](O)[C@H]1O [Compound 26, (((((2R,3 S,4R,5R)-5-(6-chloro-4-(isopropoxyamino)-1H-pyrazolo[3,4-b]pyridin-1-yl)-3,4-dihydroxytetrahydrofuran-2-yl)methoxy)(hydroxy)phosphoryl)methyl)phosphonic acid] | 2.9 nM |
| CONc1cc(Cl)nc2c1cnn2[C@@H]1O[C@H](COP(=O)(O)CP(=O)(O)O)[C@@H](O)[C@H]1O [Compound 24, (((((2R,3S,4R,5R)-5-(6-chloro-4-(methoxyamino)-1H-pyrazolo[3,4-b]pyridin-1-yl)-3,4-dihydroxytetrahydrofuran-2-yl)methoxy)(hydroxy)phosphoryl)methyl) phosphonic acid] | 5.3 nM |
| C[C@@]1(O)[C@@H](COP(=O)(O)CP(=O)(O)O)O[C@@H](n2ncc3c(N4C[C@H]5CCC[C@H]5C4)nc(Cl)nc32)[C@@H]1O [Compound 38, (((((2R,3S,4R,5R)-5-(6-chloro-4-((3aR,6aS)-hexahydrocyclopenta[c]pyrrol-2(1H)-yl)-1H-pyrazolo[3,4-d]pyrimidin-1-yl)-3,4-dihydroxy-3-methyltetrahydrofuran-2-yl)methoxy)(hydroxy)phosphoryl)methyl)phosphonic acid] | 0.3 nM |
| O=P(O)(O)CP(=O)(O)OC[C@H]1O[C@@H](n2ncc3c(NOC4CCCC4)nc(Cl)nc32)[C@H](O)[C@@H]1O [Compound 25, (((((2R,3S,4R,5R)-5-(6-chloro-4-((cyclopentyloxy)amino)-1H-pyrazolo[3,4-d]pyrimidin-1-yl)-3,4-dihydroxytetrahydrofuran-2-yl)methoxy)(hydroxy)phosphoryl)methyl)phosphonic acid] | 0.4 nM |

test system: B16F10 xenograft tumor; test: B16F10 xenograft tumor model in vivo; parameters: species or system mouse; conditions: 30 mg/kg, single agent
Experimental: B16F10 Xenograft Tumor Model In Vivo
B16F10 cells were purchased from ATCC, the cell medium was DMEM+10% FBS+1% double antibody, and the cells were cultured in an incubator at 37° C. under 5% CO2. After the cells had grown to a number sufficient for inoculation, the cells were harvested. The cell-containing culture solution was transferred to a 50 mL sterile centrifuge tube, and centrifuged at 1500 rpm for 3 minutes. The centrifuge tube was taken out after centrifugation, and the supernatant was discarded. The cells were resuspended in a pre-cooled PBS and centrifuged at 1500 rpm for 3 minutes, and after centrifugation, the supernatant was discarded; the process was repeated twice. Finally, the cells were resuspended in a pre-cooled PBS. After counting, the cells were diluted to 1×10^6 cells/mL with a pre-cooled PBS. […] The second day of inoculation was recorded as Day 0, and compound 28 (the vehicle was phosphate buffer saline) was given by intragastric administration every day after randomization, and animals in both the group with the anti-PD-1 antibody (anti-PD-1; BioXcell, Cat. CD279) and the group with combined drugs were injected intraperitoneally with the anti-PD-1 antibody (twice a week). The long and short diameters of the tumors were measured with an electronic vernier caliper, and the body weight of the animals was recorded. […]

| SMILES | TGI % (day 15) |
| --- | --- |
| C[C@H](Nc1cc(Cl)nc2c1cnn2[C@@H]1O[C@H](COP(=O)(O)CP(=O)(O)O)[C@@H](O)[C@H]1O)c1ccccc1F [AB680, reference compound] | 57.96% |

same assay, conditions: 100 mg/kg, intragastric administration every day, single agent

| SMILES | TGI % (day 15) |
| --- | --- |
| O=P(O)(O)CP(=O)(O)OC[C@H]1O[C@@H](n2ncc3c(N4C[C@H]5CCC[C@H]5C4)nc(Cl)nc32)[C@H](O)[C@@]1(O)CO [Compound 28, (((((2R,3S,4R,5R)-5-(6-chloro-4-((3aR,6aS)-hexahydrocyclopenta[c]pyrrol-2(1H)-yl)-1H-pyrazolo[3,4-d]pyrimidin-1-yl)-3,4-dihydroxy-3-(hydroxymethyl)tetrahydrofuran-2-yl)methoxy)(hydroxy)phosphoryl)methyl)phosphonic acid] | 50.12% |
